Experiments:
[1] = test system: Escherichia coli; experiment: Potentiation of aztreonam-induced antibacterial activity against Escherichia coli 1010 producing CMY-6 assessed as concentration required to reduce aztreonam MIC to 4 ug/ml by CLSI based broth microdilution method; type: functional
[2] = test system: Escherichia coli; experiment: Potentiation of aztreonam-induced antibacterial activity against Escherichia coli 302 producing TEM-10 assessed as concentration required to reduce aztreonam MIC to 4 ug/ml by CLSI based broth microdilution method; type: functional
[3] = test system: Klebsiella pneumoniae; experiment: Potentiation of aztreonam-induced antibacterial activity against Klebsiella pneumoniae 1009 producing class A CTX-M-14 assessed as concentration required to reduce aztreonam MIC to 4 ug/ml by CLSI based broth microdilution method; type: functional
[4] = test system: Klebsiella pneumoniae; experiment: Potentiation of aztreonam-induced antibacterial activity against Klebsiella pneumoniae 1004 producing KPC assessed as concentration required to reduce aztreonam MIC to 4 ug/ml by CLSI based broth microdilution method; type: functional
[5] = test system: Enterobacter cloacae; experiment: Potentiation of aztreonam-induced antibacterial activity against Enterobacter cloacae 1002 producing AmpC assessed as concentration required to reduce aztreonam MIC to 4 ug/ml by CLSI based broth microdilution method; type: functional
[6] = test system: Escherichia coli; experiment: Potentiation of aztreonam-induced antibacterial activity against Escherichia coli 308 producing SHV-5 assessed as concentration required to reduce aztreonam MIC to 4 ug/ml by CLSI based broth microdilution method; type: functional
[7] = AUC in rat at 30 mg/kg, po measured upto 24 hrs by HPLC-MS analysis; type: ADME, organism-based; parameters: dose 30 mg/kg, time < 24 hrs, route po; conditions: in vivo
[8] = Oral bioavailability in rat at 100 mg/kg measured upto 24 hrs by HPLC-MS analysis; type: ADME, organism-based; conditions: in vivo
[9] = AUC in rat at 100 mg/kg, po measured upto 24 hrs by HPLC-MS analysis; type: ADME, organism-based; parameters: time < 24 hrs, dose 100 mg/kg, route po; conditions: in vivo
[10] = Oral bioavailability in rat at 30 mg/kg measured upto 24 hrs by HPLC-MS analysis; type: ADME, organism-based; conditions: in vivo
[11] = AUC in rat at 300 mg/kg, po measured upto 24 hrs by HPLC-MS analysis; type: ADME, organism-based; parameters: dose 300 mg/kg, time < 24 hrs, route po; conditions: in vivo
[12] = Oral bioavailability in rat at 300 mg/kg measured upto 24 hrs by HPLC-MS analysis; type: ADME, organism-based; conditions: in vivo
[13] = test system: Escherichia coli; experiment: microbe, parasite or virus in culture; conditions: 308
[14] = test system: Klebsiella pneumoniae; experiment: microbe, parasite or virus in culture; conditions: 1009
[15] = test system: Escherichia coli; experiment: microbe, parasite or virus in culture; conditions: 1010
[16] = test system: Klebsiella pneumoniae; experiment: microbe, parasite or virus in culture; conditions: 1004
[17] = test system: Escherichia coli; experiment: microbe, parasite or virus in culture; conditions: 302
[18] = Oral bioavailability in rat; type: ADME, organism-based; conditions: in vivo
[19] = AUC in rat at 300 mg/kg administered as iv infusion for 0.5 hrs and measured upto 24 hrs by HPLC-MS analysis; type: ADME, organism-based; parameters: time < 24.5 hrs, dose 300 mg/kg, route iv; conditions: in vivo
[20] = AUC in rat at 30 mg/kg administered as iv infusion for 0.5 hrs and measured upto 24 hrs by HPLC-MS analysis; type: ADME, organism-based; parameters: time < 24.5 hrs, dose 30 mg/kg, route iv; conditions: in vivo
[21] = AUC in rat at 100 mg/kg administered as iv infusion for 0.5 hrs and measured upto 24 hrs by HPLC-MS analysis; type: ADME, organism-based; parameters: dose 100 mg/kg, time < 24.5 hrs, route iv; conditions: in vivo

Structure (SMILES) | EC [1] | EC [2] | EC [3] | EC [4] | EC [5] | EC [6] | other results
O=C(O)CC1CCC[C@H](NC(=O)Cc2cccs2)B(O)O1 (stereo partly drawn) | 10 µg/mL | >40 µg/mL | 10 µg/mL | 20 µg/mL | 10 µg/mL | 10 µg/mL | –
CSCC(=O)N[C@H]1CC=C[C@@H]2CC(=O)OB1O2 | – | – | – | – | – | – | AUC at 24 h [7]: 14.6 µg·h/mL; bioavailability [8]: 69.3%; AUC at 24 h [9]: 55 µg·h/mL; bioavailability [10]: 52%; AUC at 24 h [11]: 179 µg·h/mL; bioavailability [12]: 64.9%
O=C(O)C[C@H]1C=CC[C@H](NC(=O)Cc2cccs2)B(O)O1 | 10 µg/mL | 5 µg/mL | 5 µg/mL | 10 µg/mL | 2.5 µg/mL | 1.25 µg/mL | –
O=C(O)C[C@@H]1C=CC[C@H](NC(=O)Cc2cccs2)B(O)O1 | 40 µg/mL | >40 µg/mL | 20 µg/mL | 40 µg/mL | 10 µg/mL | 10 µg/mL | –
C[C@H]1[C@H](NC(=O)/C(=N\OC(C)(C)C(=O)O)c2csc(N)n2)C(=O)N1S(=O)(=O)O [AZTREONAM] | – | – | – | – | – | – | MIC [13]: > 64 mg/L; MIC [14]: > 64 mg/L; MIC [15]: > 64 mg/L; MIC [16]: > 64 mg/L; MIC [17]: > 64 mg/L
O=C(O)C[C@@H]1CC[C@H](NC(=O)Cc2cccs2)B(O)O1 [VABORBACTAM] | 20 µg/mL | >40 µg/mL | >40 µg/mL | 1.25 µg/mL | 20 µg/mL | >40 µg/mL | bioavailability [18]: < 10%
COC(=O)N1CC(CC(=O)O)OB(O)[C@@H](NC(=O)Cc2cccs2)C1 (stereo partly drawn) | 20 µg/mL | 20 µg/mL | 10 µg/mL | 40 µg/mL | – | 2.5 µg/mL | –
O=C(O)CC1C=CC[C@H](NC(=O)Cc2cccs2)B(O)O1 (stereo partly drawn) | 20 µg/mL | 10 µg/mL | 10 µg/mL | 20 µg/mL | 10 µg/mL | 2.5 µg/mL | –
CSCC(=O)N[C@H]1CC=C[C@H](CC(=O)O)OB1O | 5 µg/mL | 5 µg/mL | 2.5 µg/mL | 10 µg/mL | 1.25 µg/mL | 1.25 µg/mL | –
CSCC(=O)N[C@H]1CC=C[C@H](CC(=O)[O-])OB1O.[Na+] | – | – | – | – | – | – | AUC at 24 h [7]: 2.6 µg·h/mL; AUC at 24.5 h [19]: 276 µg·h/mL; bioavailability [10]: 9.3%; AUC at 24.5 h [20]: 28.1 µg·h/mL; AUC at 24.5 h [21]: 79.4 µg·h/mL
O=C(Cc1cccs1)N[C@H]1CC=C[C@@H]2CC(=O)OB1O2 | – | – | – | – | – | – | bioavailability [18]: 48%
O=C(O)CC1COC[C@H](NC(=O)Cc2cccs2)B(O)O1 (stereo partly drawn) | 10 µg/mL | 20 µg/mL | 5 µg/mL | 40 µg/mL | 10 µg/mL | 5 µg/mL | –
CC(=O)N1CC(CC(=O)O)OB(O)[C@@H](NC(=O)Cc2cccs2)C1 (stereo partly drawn) | 10 µg/mL | 20 µg/mL | 5 µg/mL | 40 µg/mL | 20 µg/mL | 1.25 µg/mL | –
Nc1nnc(SCC(=O)N[C@H]2CC=C[C@H](CC(=O)O)OB2O)s1 | 1.25 µg/mL | 5 µg/mL | 2.5 µg/mL | 5 µg/mL | 0.6 µg/mL | 1.25 µg/mL | –
O=C(O)C[C@H]1C=CC[C@H](NC(=O)c2cccnc2)B(O)O1 | 1.25 µg/mL | 1.25 µg/mL | 5 µg/mL | 10 µg/mL | 1.25 µg/mL | 2.5 µg/mL | –

Source: ChEMBL document CHEMBL5143649, “Broad-spectrum cyclic boronate β-lactamase inhibitors featuring an intramolecular prodrug for oral bioavailability” (Bioorg Med Chem, 2022)
